Tests used:
[1] = target: T1, CAMK4 (Homo sapiens, UniProt Q16566); test: KINOMEscan panel screen; type: binding; conditions: read-out: Percent Control(%)
T1 construct: purchased DiscoveRx KINOMEscan (Ambit Biosciences)
T1 sequence (Q16566 1-473): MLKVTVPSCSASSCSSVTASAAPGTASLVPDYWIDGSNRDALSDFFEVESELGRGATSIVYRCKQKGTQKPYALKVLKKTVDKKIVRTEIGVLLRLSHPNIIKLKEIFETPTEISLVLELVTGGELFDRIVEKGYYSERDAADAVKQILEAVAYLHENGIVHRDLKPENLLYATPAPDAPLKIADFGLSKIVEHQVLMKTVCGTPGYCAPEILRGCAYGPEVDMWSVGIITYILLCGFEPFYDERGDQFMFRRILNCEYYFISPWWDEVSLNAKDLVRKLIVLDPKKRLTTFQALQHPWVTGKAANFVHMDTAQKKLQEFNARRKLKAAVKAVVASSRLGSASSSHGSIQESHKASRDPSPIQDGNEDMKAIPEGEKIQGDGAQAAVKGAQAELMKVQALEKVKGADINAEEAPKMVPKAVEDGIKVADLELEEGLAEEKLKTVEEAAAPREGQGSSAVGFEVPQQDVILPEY

[2] = target: T2, EGFR(G719C) (Homo sapiens, UniProt P00533, G719C); test: KINOMEscan panel screen; type: binding; conditions: read-out: Percent Control(%)
T2 construct: purchased DiscoveRx KINOMEscan (Ambit Biosciences)

[3] = target: T3, FER (Homo sapiens, UniProt P16591); test: KINOMEscan panel screen; type: binding; conditions: read-out: Percent Control(%)
T3 construct: purchased DiscoveRx KINOMEscan (Ambit Biosciences)

[4] = target: T4, FGFR4 (Homo sapiens, UniProt P22455); test: KINOMEscan panel screen; type: binding; conditions: read-out: Percent Control(%)
T4 construct: purchased DiscoveRx KINOMEscan (Ambit Biosciences)
T4 sequence (P22455 22-802): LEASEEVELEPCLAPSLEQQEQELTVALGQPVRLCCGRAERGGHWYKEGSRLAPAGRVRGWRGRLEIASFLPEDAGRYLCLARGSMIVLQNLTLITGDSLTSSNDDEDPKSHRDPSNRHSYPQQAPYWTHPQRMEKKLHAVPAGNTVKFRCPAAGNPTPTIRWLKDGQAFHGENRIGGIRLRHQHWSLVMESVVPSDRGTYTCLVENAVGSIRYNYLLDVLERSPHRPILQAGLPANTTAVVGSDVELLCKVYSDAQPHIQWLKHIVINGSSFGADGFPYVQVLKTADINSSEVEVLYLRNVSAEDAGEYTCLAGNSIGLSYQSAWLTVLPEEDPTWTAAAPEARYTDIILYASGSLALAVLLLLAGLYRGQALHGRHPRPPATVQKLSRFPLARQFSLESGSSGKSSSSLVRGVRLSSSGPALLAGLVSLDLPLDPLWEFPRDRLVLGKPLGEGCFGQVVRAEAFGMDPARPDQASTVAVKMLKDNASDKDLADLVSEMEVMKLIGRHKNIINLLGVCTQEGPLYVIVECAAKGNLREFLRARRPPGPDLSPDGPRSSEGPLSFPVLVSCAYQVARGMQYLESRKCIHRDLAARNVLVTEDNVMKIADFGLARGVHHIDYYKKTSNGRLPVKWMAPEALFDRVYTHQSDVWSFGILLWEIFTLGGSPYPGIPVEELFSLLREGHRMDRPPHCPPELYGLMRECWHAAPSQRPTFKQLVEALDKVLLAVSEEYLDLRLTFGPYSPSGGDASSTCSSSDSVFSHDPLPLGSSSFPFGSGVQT

[5] = target: T5, JNK3 (Homo sapiens, UniProt P53779); test: KINOMEscan panel screen; type: binding; conditions: read-out: Percent Control(%)
T5 construct: purchased DiscoveRx KINOMEscan (Ambit Biosciences)
T5 sequence (P53779 whole entry): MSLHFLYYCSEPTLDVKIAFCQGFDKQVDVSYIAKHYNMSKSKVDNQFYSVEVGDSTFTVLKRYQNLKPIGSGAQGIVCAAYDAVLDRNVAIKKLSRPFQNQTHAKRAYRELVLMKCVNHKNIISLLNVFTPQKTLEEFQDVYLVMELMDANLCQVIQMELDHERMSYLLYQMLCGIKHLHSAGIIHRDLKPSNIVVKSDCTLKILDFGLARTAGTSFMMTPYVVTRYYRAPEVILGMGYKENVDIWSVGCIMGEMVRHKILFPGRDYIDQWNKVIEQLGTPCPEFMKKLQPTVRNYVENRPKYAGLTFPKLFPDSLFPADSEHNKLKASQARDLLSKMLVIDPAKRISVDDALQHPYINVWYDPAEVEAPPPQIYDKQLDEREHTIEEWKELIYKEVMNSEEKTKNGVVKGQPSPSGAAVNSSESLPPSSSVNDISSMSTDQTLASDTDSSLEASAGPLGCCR

[6] = target: T6, MARK3 (Homo sapiens, UniProt P27448); test: KINOMEscan panel screen; type: binding; conditions: read-out: Percent Control(%)
T6 construct: purchased DiscoveRx KINOMEscan (Ambit Biosciences)
T6 sequence (P27448 whole entry): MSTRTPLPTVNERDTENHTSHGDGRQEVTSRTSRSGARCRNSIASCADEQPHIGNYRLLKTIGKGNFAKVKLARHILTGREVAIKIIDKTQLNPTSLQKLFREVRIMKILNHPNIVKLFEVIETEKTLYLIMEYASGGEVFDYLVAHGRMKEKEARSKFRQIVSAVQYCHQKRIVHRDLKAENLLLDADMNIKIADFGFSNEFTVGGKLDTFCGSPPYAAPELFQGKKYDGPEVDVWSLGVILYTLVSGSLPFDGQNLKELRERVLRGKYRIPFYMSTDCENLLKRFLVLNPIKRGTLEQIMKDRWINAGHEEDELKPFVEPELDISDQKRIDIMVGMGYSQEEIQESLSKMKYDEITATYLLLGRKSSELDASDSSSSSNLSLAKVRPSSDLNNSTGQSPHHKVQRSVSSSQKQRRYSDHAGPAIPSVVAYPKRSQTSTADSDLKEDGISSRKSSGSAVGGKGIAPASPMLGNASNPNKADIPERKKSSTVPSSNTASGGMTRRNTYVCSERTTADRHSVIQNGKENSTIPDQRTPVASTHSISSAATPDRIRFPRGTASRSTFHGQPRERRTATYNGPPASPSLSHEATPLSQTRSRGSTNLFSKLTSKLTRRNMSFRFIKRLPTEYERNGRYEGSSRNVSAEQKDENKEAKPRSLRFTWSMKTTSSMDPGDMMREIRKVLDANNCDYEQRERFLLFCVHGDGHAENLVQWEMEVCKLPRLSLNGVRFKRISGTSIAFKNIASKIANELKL

[7] = target: T7, MKNK2 (Homo sapiens, UniProt Q9HBH9); test: KINOMEscan panel screen; type: binding; conditions: read-out: Percent Control(%)
T7 construct: purchased DiscoveRx KINOMEscan (Ambit Biosciences)
T7 sequence (Q9HBH9 whole entry): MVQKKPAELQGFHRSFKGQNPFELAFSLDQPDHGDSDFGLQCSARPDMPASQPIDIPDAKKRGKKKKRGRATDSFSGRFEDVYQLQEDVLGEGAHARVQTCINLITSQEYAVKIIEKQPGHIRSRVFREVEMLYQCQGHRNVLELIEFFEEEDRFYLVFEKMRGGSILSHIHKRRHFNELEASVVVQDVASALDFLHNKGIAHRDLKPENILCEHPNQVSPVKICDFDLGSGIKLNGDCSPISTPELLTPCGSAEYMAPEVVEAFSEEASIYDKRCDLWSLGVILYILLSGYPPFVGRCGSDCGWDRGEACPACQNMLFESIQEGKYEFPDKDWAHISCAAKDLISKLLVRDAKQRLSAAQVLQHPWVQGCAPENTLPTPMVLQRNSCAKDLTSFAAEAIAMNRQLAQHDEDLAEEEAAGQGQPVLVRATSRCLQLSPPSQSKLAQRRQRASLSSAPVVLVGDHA

[8] = target: T8, MLK3 (Homo sapiens, UniProt Q16584); test: KINOMEscan panel screen; type: binding; conditions: read-out: Percent Control(%)
T8 construct: purchased DiscoveRx KINOMEscan (Ambit Biosciences)
T8 sequence (Q16584 whole entry): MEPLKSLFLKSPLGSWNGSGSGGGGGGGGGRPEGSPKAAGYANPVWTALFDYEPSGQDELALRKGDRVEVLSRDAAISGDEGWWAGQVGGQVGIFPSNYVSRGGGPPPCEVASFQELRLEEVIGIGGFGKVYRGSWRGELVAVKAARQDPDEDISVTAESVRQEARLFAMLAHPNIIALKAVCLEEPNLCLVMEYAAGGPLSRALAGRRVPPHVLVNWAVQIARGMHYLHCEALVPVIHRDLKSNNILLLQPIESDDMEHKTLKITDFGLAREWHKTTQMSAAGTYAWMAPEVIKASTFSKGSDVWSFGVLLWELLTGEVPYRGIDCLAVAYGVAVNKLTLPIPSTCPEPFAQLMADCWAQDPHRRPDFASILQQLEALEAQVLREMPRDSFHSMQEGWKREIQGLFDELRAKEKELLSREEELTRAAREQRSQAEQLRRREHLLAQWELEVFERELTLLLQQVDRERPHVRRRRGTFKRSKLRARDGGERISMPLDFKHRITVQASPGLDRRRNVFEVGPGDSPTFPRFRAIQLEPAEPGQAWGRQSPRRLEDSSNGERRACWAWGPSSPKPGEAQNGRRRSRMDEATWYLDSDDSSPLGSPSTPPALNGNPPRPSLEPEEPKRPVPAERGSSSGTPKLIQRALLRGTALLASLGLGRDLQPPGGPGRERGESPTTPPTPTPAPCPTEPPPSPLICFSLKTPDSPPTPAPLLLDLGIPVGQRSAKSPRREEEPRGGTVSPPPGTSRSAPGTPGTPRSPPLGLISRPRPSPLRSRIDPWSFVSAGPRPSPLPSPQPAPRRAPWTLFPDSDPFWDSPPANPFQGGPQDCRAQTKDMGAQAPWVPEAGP

[9] = target: T9, NDR1 (Homo sapiens, UniProt Q15208); test: KINOMEscan panel screen; type: binding; conditions: read-out: Percent Control(%)
T9 construct: purchased DiscoveRx KINOMEscan (Ambit Biosciences)
T9 sequence (Q15208 whole entry): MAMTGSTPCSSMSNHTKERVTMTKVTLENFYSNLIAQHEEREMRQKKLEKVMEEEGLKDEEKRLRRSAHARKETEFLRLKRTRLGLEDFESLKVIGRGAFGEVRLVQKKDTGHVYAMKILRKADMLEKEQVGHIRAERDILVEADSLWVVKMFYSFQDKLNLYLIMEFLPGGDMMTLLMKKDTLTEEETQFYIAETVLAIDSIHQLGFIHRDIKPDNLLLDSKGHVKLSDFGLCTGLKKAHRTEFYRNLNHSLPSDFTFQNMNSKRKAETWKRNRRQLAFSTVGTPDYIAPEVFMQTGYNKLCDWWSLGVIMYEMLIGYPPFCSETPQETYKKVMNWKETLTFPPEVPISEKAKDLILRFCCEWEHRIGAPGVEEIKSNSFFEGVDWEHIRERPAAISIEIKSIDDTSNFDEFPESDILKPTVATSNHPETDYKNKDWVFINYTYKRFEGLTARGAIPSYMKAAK

[10] = target: T10, PDGFRA (Homo sapiens, UniProt P16234); test: KINOMEscan panel screen; type: binding; conditions: read-out: Percent Control(%)
T10 construct: purchased DiscoveRx KINOMEscan (Ambit Biosciences)

[11] = target: T11, PIK3CB (Homo sapiens, UniProt P42338); test: KINOMEscan panel screen; type: binding; conditions: read-out: Percent Control(%)
T11 construct: purchased DiscoveRx KINOMEscan (Ambit Biosciences)

[12] = target: T12, TRKC (Homo sapiens, UniProt Q16288); test: KINOMEscan panel screen; type: binding; conditions: read-out: Percent Control(%)
T12 construct: purchased DiscoveRx KINOMEscan (Ambit Biosciences)
T12 sequence (Q16288 32-839): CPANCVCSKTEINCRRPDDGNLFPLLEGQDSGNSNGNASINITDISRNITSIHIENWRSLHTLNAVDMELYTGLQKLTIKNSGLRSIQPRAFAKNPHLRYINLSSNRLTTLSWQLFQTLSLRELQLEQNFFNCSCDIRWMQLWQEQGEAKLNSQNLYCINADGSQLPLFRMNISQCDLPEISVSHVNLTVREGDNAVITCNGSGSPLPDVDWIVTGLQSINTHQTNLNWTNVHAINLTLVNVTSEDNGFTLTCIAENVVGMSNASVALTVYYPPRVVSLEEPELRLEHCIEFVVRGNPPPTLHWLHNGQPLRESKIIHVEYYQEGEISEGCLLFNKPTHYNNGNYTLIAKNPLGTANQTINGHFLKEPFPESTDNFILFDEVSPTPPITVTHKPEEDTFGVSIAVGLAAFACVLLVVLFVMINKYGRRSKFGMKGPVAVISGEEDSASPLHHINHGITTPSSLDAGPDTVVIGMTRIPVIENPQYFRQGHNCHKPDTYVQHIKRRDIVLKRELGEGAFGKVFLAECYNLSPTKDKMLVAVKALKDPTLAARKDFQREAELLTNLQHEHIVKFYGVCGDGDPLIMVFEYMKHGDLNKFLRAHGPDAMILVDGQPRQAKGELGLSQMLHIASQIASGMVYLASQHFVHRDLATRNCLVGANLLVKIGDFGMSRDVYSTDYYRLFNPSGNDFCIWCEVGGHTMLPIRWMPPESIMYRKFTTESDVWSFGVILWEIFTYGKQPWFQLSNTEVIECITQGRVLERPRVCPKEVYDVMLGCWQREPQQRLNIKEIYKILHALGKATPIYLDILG

[13] = target: T13, TYRO3 (Homo sapiens, UniProt Q06418); test: KINOMEscan panel screen; type: binding; conditions: read-out: Percent Control(%)
T13 construct: purchased DiscoveRx KINOMEscan (Ambit Biosciences)

[14] = system: phosphorylation of FLT3 and STAT5 in MV4-11 tumors; test: FLT3 signaling in MV4-11 xenograft tumors (western blot); type: in vivo, NOD-SCID mice; conditions: single oral dose 10 mg/kg
Method: To examine the effects of SKLB-677 on FLT3 and Wnt/β-catenin signaling in vivo, the same MV4-11 xenograft model was used and MV4-11 tumors were harvested at specific time points (0 h, 4 h, 6 h, 8 h, 12 h, and 24 h) after the treatment of 10 mg/kg SKLB-677 (3 mice for each time point). Western blot assays and real-time qPCR assays were conducted on the harvested tumors.
Western blot analysis was performed as previously described. Whole protein lysates of tumor samples were collected by the abrading of tumors in liquid nitrogen. […] Quantitative analysis of the protein level was performed with NIH image analysis software, ImageJ (normalized relative to the vehicle control).
Figure 5 In vivo effects of SKLB-677. […] The tumor volume and body weight were measured every 3 days during the treatment. […] Ki67 and TUNEL were detected with immunohistochemical. […] Tumors were harvested at the indicated time points, and the FLT3 signaling pathway was detected using western blot assays. […] (e) The same harvested tumors were detected using real-time qPCR assays to test the expression of AXIN2 and NKD1 (the target genes of Wnt/β-catenin pathway). […] The plasma concentrations were determined using liquid–liquid extraction followed by high-performance liquid chromatography (HPLC) with tandem mass spectrometric detection.

[15] = target: FLT3-D835Y (Homo sapiens, UniProt P36888, D835Y); test: KINOMEscan kinase binding assay (Kd); design: purchased Ambit Biosciences (KINOMEscan)

## CC(C)(C)c1cc(NC(=O)Nc2ccc(Oc3ncnc4[nH]ncc34)c(F)c2)no1 [SKLB-677, 1-(4-(1H-pyrazolo[3,4-d]pyrimidin-4-yloxy)-3-fluorophenyl)-3-(5-tert-butylisoxazol-3-yl)urea]
[1]
  remaining binding at 10 µM: 85%
[2]
  remaining binding at 10 µM: 37%
[3]
  remaining binding at 10 µM: 24%
[4]
  remaining binding at 10 µM: 4.8%
[5]
  remaining binding at 10 µM: 18%
[6]
  remaining binding at 10 µM: 68%
[7]
  remaining binding at 10 µM: 1%
[8]
  remaining binding at 10 µM: 24%
[9]
  remaining binding at 10 µM: 58%
[10]
  remaining binding at 10 µM: 0.25%
[11]
  remaining binding at 10 µM: 100%
[12]
  remaining binding at 10 µM: 0.05%
[13]
  remaining binding at 10 µM: 0.35%
[14]
  time for which the effects on p-FLT3 and p-STAT5 were maintained: up to 24 h
[14]; 4 h posttreatment
  phosphorylation of FLT3 and STAT5 in tumors: nearly abolished
[15]
  Kd: 1.3 nM

From publication PMC4620497 (Scientific Reports, 2015)
